PMC6149664, “Synthesis and In Vitro Antimycobacterial Activity of Novel N-Arylpiperazines Containing an Ethane-1,2-diyl Connecting Chain” (Molecules : A Journal of Synthetic Chemistry and Natural …, 2017)
Where two headings read alike, the source gives them in different places.

Columns and labels:
[1] = test system: M. avium hominissuis CIT10/08; test: In vitro antimycobacterial MIC (IC90), alamarBlue 96-well assay in Middlebrook broth; assay type: cell-based, Mycobacterium avium hominissuis; details: Mycobacterium avium, 168 h, 7 days incubation, read-out: MIC, MAH CIT10/08
[2] = test system: M. avium CNCTC My 330/80 (identical with ATCC 25291); test: In vitro antimycobacterial MIC, dilution-micromethod in Šula semisynthetic medium; assay type: cell-based; details: Mycobacterium avium
[3] = test system: M. avium intracellulare ATCC 13950; test: In vitro antimycobacterial MIC (IC90), alamarBlue 96-well assay in Middlebrook broth; assay type: cell-based, Mycobacterium avium intracellulare; details: Mycobacterium avium, ATCC13950, 168 h, 7 days incubation, read-out: MIC, MAI ATCC 13950
[4] = test system: M. kansasii 6 509/96 clinical isolate; test: In vitro antimycobacterial MIC, dilution-micromethod in Šula semisynthetic medium; assay type: cell-based; details: Mycobacterium kansasii, read-out: MIC, MK 6 509/96
[5] = test system: M. avium subsp. paratuberculosis CIT03; test: microbe, parasite or virus in culture; assay type: cell-based; details: Mycobacterium avium, 168 h; 7 days incubation, alamarBlue; MIC = IC90; read-out: MIC, MAP CIT03
[6] = test system: M. kansasii CNCTC My 235/80 (identical with ATCC 12478); test: In vitro antimycobacterial MIC, dilution-micromethod in Šula semisynthetic medium; assay type: cell-based, Mycobacterium kansasii; details: Mycobacterium kansasii, read-out: MIC, MK My 235/80
[7] = test system: M. kansasii CIT11/06; test: In vitro antimycobacterial MIC (IC90), alamarBlue 96-well assay in Middlebrook broth; assay type: cell-based, Mycobacterium kansasii; details: Mycobacterium kansasii, CIT11/06, 168 h, 7 days incubation, read-out: MIC, MK CIT11/06
[8] = Isocratic RP-HPLC lipophilicity (k, log k, extrapolated log kw, slope S), MeOH/water mobile phases; assay type: physicochemical; details: for log kw (RP-HPLC): extrapolated to 100% water from log k vs ϕM (MeOH); for S, slope (RP-HPLC): slope of regression log k vs ϕM, alternative measure of lipophilicity
From the text: Octadecyl-functionalized silica gel was used as a stationary phase in the RP-HPLC evaluation of 8a–h. A gradient of two solvents at different volume ratios modulated retention properties of a stationary phase. Liquid binary mixtures of methanol (MeOH) with water were employed as mobile phases in a present isocratic RP-HPLC method. The MeOH organic modifier was preferred because of making a reversed-phase chromatographic system closer to the octan-1-ol/water partitioning one in terms of sensitivity to H-bond donor properties of investigated compounds [39, 40]. The modifier was applied in different volume concentrations that varied from 60% to 85% (v/v).
The chromatographic HPLC-Diode Array Detection apparatus for the determination of capacity (retention) factor k (log k) values was the LC Agilent Infinity System (Agilent Technologies, Santa Clara, CA, USA) equipped with a Infinity 1260 gradient pump with a degasser, a 1260 HiPals automatic injector, a column thermostat 1290, a photo-diode array detector Infinity 1290 (all the equipments were obtained by Agilent Technologies) and personal computer with the Agilent ChemStation software (Agilent Technologies) for the registration of values and calibration procedures. The chromatographic column Eclipse plus RP C18, 150 × 4.6 mm i.d., a 5 μm particle size (Agilent Technologies), was used and thermostated at 35 °C.
The analyses were performed at pressure ranged from 7 MPa to 15 MPa. The detection wavelength was set to 260 nm, injection sample volume was 5 μL with a flow rate of 1.0 mL/min in all RP-HPLC analyses.
LC-MS Methanol (J. T. Baker Chemicals Co., Phillipsburg, NJ, USA) and HPLC-quality water (Sigma-Aldrich, Darmstadt, Germany) were used for a preparation of mobile phases. Water was firstly deionized and purified by the Millipore Simplicity 185 Ultrapure water purification system (Millipore, Billerica, MA, USA).
Methanol (MeOH)/water mobile phases with a various volume ratio of the organic modifier and water (60:40, 70:30, 80:20 and 85:15, respectively; v/v) were chosen. A concentration of all analyzed compounds 8a–h was c = 0.25 mg/mL. An queous solution of potassium nitrate (c = 0.1 M) was used for the determination of dead time t0 = 1.295 min. The capacity (retention) factor k values (Table 1) were calculated by Equation (6) as follows:k = (tr – t0)/t0(6) where the tr and t0 parameters were the retention times of a solute (tr) and unretained compound (potassium nitrate; t0), respectively. The observed retention (tr) and dead (t0) times were means of three independent determinations.
The log kw values, i.e., the logarithms of extrapolated capacity (retention) factors for 100% water in the isocratic RP-HPLC, were determined from intercepts of linear plots between the log k and ϕM (a volume fraction of an organic modifier in the isocratic elution RP-HPLC) according to Equation (7): log k = log kw – S × ϕM(7) where the S parameter represented the slope of a regression curve, which was related to the solvent strength of a pure organic solvent.

[9] = UV/Vis spectra of methanolic solutions (log ε); assay type: physicochemical; details: methanolic solution c = 3.0 × 10^−5 M; for log ε2(Ch-T): charge-transfer maximum λ2(Ch-T) = 238–240 nm; for log ε1: λ1 = 208–210 nm; for log ε3: λ3 = 274–276 nm
From the text: Electronic properties of the inspected compounds 8a–h (Table 3) were characterized by logarithms of molar absorption coefficients (log ε) of their methanolic solutions (c = 3.0 × 10^−5 M) investigated in the UV/Vis region of the spectrum.
The UV/Vis spectra of methanolic solutions of the analyzed compounds 8a–h (c = 3.0 × 10^−5 M) were estimated on the 8452A Diode Array spectrophotometer HP-8452A (Hewlett Packard, Palo Alto, CA, USA). Methanol for UV-spectroscopy (Merck) was used for the preparation of these solutions.
Results of the UV/Vis analyses were collected and stored digitally using the ChemStation controller software (Agilent Technologies, Waldbronn, Germany). The HP-8452A apparatus measured a complete range of a spectrum from 190 nm to 820 nm.
The log ε values characterizing methanolic solutions of the analyzed compounds 8a–h (c = 3.0 × 10^−5 M) were estimated at λ1 = 208–210 nm, λ2(Ch-T) = 238–240 nm and λ3 = 274–276 nm (Table 3), respectively, in a near ultraviolet (quarz) region of the electromagnetic spectrum between 200 and 400 nm. The log ε values for the observed absorption maxima were calculated according to the Lambert-Beer´s law discussed in [47], for example, and expressed by Equation (8):A = ε × c × l(8) where the A parameter represented the absorbance of a solution, the descriptor ε was a molar absorption coefficient (in the L/mol/cm units) and l was the path length (in the cm units).

[10] = ATCC25291, 336 h, 14 d cultivation, read-out: MIC, MA My 330/88
[11] = ATCC25291, 504 h, 21 d cultivation, read-out: MIC, MA My 330/88
[12] = ATCC12478, 168 h, 7 d cultivation
[13] = ATCC12478, 336 h, 14 d cultivation
[14] = ATCC12478, 504 h, 21 d cultivation
[15] = mobile phase MeOH/water 60:40 (v/v)
[16] = mobile phase MeOH/water 70:30 (v/v)
[17] = mobile phase MeOH/water 80:20 (v/v)
[18] = mobile phase MeOH/water 85:15 (v/v)

SMILES	MIC [1]	MIC [2, 10]	MIC [2, 11]	MIC [3]	MIC ([4]; 168 h, 7 d cultivation)	MIC ([4]; 336 h, 14 d cultivation)	MIC ([4]; 504 h, 21 d cultivation)	MIC [5]	MIC [6, 13]	MIC [6, 14]	MIC [7]	capacity factor k (RP-HPLC) ([8]; MeOH/water 60:40 (v/v))	capacity factor k (RP-HPLC) ([8]; MeOH/water 70:30 (v/v))	capacity factor k (RP-HPLC) ([8]; MeOH/water 80:20 (v/v))	capacity factor k (RP-HPLC) ([8]; MeOH/water 85:15 (v/v))	log kw (RP-HPLC) [8]	log k (RP-HPLC) [8, 15]	log k (RP-HPLC) [8, 16]	log k (RP-HPLC) [8, 17]	log k (RP-HPLC) [8, 18]	other results
CCCOC(=O)Nc1ccc(C(O)CN2CCN(c3ccccc3F)CC2)cc1.Cl (stereo not drawn) [8g, 1-(2-Hydroxy-2-{4-[(propoxycarbonyl)amino]phenyl}ethyl)-4-(2-fluorophenyl)piperazin-1-ium chloride]	> 571 µM	> 250 µM	> 250 µM	> 71 µM	125 µM	> 250 µM	> 250 µM	> 571 µM	> 250 µM	> 250 µM	> 571 µM	5.394	3.108	1.342	0.956	2.600	0.732	0.492	0.128	−0.020	MIC [6, 12]: 125 µM; S, slope (RP-HPLC) [8]: 3.0739; log ε2(Ch-T) [9]: 4.54; log ε1 [9]: 4.47; log ε3 [9]: 3.52
CCCCOC(=O)Nc1ccc(C(O)CN2CCN(c3ccccc3F)CC2)cc1.Cl (stereo not drawn) [8h, 1-(2-{4-[(Butoxycarbonyl)amino]phenyl}-2-hydroxyethyl)-4-(2-fluorophenyl)piperazin-1-ium chloride]	> 553 µM	> 250 µM	250 µM	> 553 µM	125 µM	> 250 µM	> 250 µM	> 553 µM	> 125 µM	> 125 µM	> 553 µM	7.598	4.627	1.736	1.173	2.930	0.881	0.665	0.240	0.069	MIC [6, 12]: 62.5 µM; S, slope (RP-HPLC) [8]: 3.3441; log ε2(Ch-T) [9]: 4.42; log ε1 [9]: 4.34; log ε3 [9]: 3.42
COC(=O)Nc1ccc(C(O)CN2CCN(c3ccccc3F)CC2)cc1.Cl (stereo not drawn) [8e, 1-(2-Hydroxy-2-{4-[(methoxycarbonyl)amino]phenyl}ethyl)-4-(2-fluorophenyl)piperazin-1-ium chloride]	> 610 µM	250 µM	500 µM	> 610 µM	125 µM	500 µM	500 µM	> 610 µM	500 µM	500 µM	> 610 µM	3.098	1.456	0.822	0.637	2.113	0.491	0.163	−0.085	−0.196	MIC [6, 12]: 125 µM; S, slope (RP-HPLC) [8]: 2.7386; log ε2(Ch-T) [9]: 4.67; log ε1 [9]: 4.61; log ε3 [9]: 3.67
CCCOC(=O)Nc1cccc(C(O)CN2CCN(c3ccccc3F)CC2)c1.Cl (stereo not drawn) [8c, 1-(2-Hydroxy-2-{3-[(propoxycarbonyl)amino]phenyl}ethyl)-4-(2-fluorophenyl)piperazin-1-ium chloride]	> 571 µM	125 µM	250 µM	> 571 µM	32 µM	125 µM	125 µM	> 571 µM	125 µM	125 µM	> 571 µM	5.898	3.561	1.466	1.023	2.679	0.771	0.552	0.166	0.010	MIC ([6]; ATCC12478, 168 h): 62.5 µM; S, slope (RP-HPLC) [8]: 3.1244; log ε2(Ch-T) [9]: 4.37; log ε1 [9]: 4.30; log ε3 [9]: 3.42
CCCCOC(=O)Nc1cccc(C(O)CN2CCN(c3ccccc3F)CC2)c1.Cl (stereo not drawn) [8d, 1-(2-{3-[(Butoxycarbonyl)amino]phenyl}-2-hydroxyethyl)-4-(2-fluorophenyl)piperazin-1-ium chloride]	> 553 µM	62.5 µM	62.5 µM	> 553 µM	16 µM	32 µM	62.5 µM	> 53 µM	62.5 µM	62.5 µM	> 553 µM	6.738	5.039	1.769	1.185	2.796	0.829	0.702	0.245	0.074	MIC ([2]; ATCC25291, 336 h, 14-d/21-d, read-out: MIC against M. avium CNCTC My 330/80): 62.5 µM; MIC [6, 12]: 32 µM; S, slope (RP-HPLC) [8]: 3.1641; log ε2(Ch-T) [9]: 4.32; log ε1 [9]: 4.31; log ε3 [9]: 3.49
